Experimental data from PubChem BioAssay (NCI).
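Five concentrations, 48 hours, 96-well plates. TGI marks complete inhibition of growth.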

Key:
Assay in all cases: growth of human tumour cells (NCI), 48 h
HCC-2998 colon = system: HCC-2998 colon
OVCAR-3 ovarian = system: OVCAR-3 ovarian
DMS 114 small cell lung = system: DMS 114 small cell lung
MALME-3M melanoma = system: MALME-3M melanoma
U251 CNS = system: U251 CNS
TK-10 renal = system: TK-10 renal
LOX IMVI melanoma = system: LOX IMVI melanoma
HOP-62 NSCLC = system: HOP-62 NSCLC
ACHN renal = system: ACHN renal
UACC-257 melanoma = system: UACC-257 melanoma
NCI-H460 lung = system: NCI-H460 lung
SNB-75 CNS = system: SNB-75 CNS
HCT-116 colon = system: HCT-116 colon
IGROV1 ovarian = system: IGROV1 ovarian
SK-OV-3 ovarian = system: SK-OV-3 ovarian
SR leukemia = system: SR leukemia
MOLT-4 leukemia = system: MOLT-4 leukemia
DLD-1 colon = system: DLD-1 colon
SW-620 colon = system: SW-620 colon
OVCAR-4 ovarian = system: OVCAR-4 ovarian
RXF-631 renal = system: RXF-631 renal
OVCAR-5 ovarian = system: OVCAR-5 ovarian
SNB-78 CNS = system: SNB-78 CNS
SNB-19 CNS = system: SNB-19 CNS
HCT-15 colon = system: HCT-15 colon
HL-60(TB) leukemia = system: HL-60(TB) leukemia
A549 NSCLC = system: A549 NSCLC
RXF 393 renal = system: RXF 393 renal
LXFL 529 NSCLC = system: LXFL 529 NSCLC
XF 498 CNS = system: XF 498 CNS
UO-31 renal = system: UO-31 renal
UACC-62 melanoma = system: UACC-62 melanoma
M14 melanoma = system: M14 melanoma
KM20L2 colon = system: KM20L2 colon
SF-539 CNS = system: SF-539 CNS
SF-268 CNS = system: SF-268 CNS
HT29 colon = system: HT29 colon
M19-MEL melanoma = system: M19-MEL melanoma
KM12 colon = system: KM12 colon
NCI-H226 lung = system: NCI-H226 lung
CCRF-CEM leukemia = system: CCRF-CEM leukemia
SF-295 CNS = system: SF-295 CNS
K-562 leukemia = system: K-562 leukemia
SK-MEL-28 melanoma = system: SK-MEL-28 melanoma
A498 renal = system: A498 renal
NCI-H23 lung = system: NCI-H23 lung
SN12C renal = system: SN12C renal
EKVX NSCLC = system: EKVX NSCLC
COLO 205 colon = system: COLO 205 colon
SK-MEL-2 melanoma = system: SK-MEL-2 melanoma
CAKI-1 renal = system: CAKI-1 renal
SK-MEL-5 melanoma = system: SK-MEL-5 melanoma
OVCAR-8 ovarian = system: OVCAR-8 ovarian
NCI-H522 lung = system: NCI-H522 lung
DMS 273 small cell lung = system: DMS 273 small cell lung
786-0 renal = system: 786-0 renal
RPMI-8226 leukemia = system: RPMI-8226 leukemia

Measured: TGI

O=C1NC2CCCCCC2C12CCCCC2 (stereo unspecified)
not listed: COLO 205 colon | SK-MEL-2 melanoma | CAKI-1 renal | SK-MEL-5 melanoma | OVCAR-8 ovarian | NCI-H522 lung | DMS 273 small cell lung | 786-0 renal | RPMI-8226 leukemia
> 100 µM: all other assays above

O=C1OC(=O)c2c1c(-c1ccccc1)nc1ccccc21
not listed: ACHN renal | SR leukemia | OVCAR-4 ovarian | OVCAR-5 ovarian
> 100 µM: all other assays above
